Assay results: patent publication US6710075B2, “Therapeutic compounds and methods” (The Government of the State of Sarawak, Malaysia, priority 2000, dated 2004)
Read-outs that look alike come from different tables or passages of the source.

What was measured:
[1] = system: A549; experiment: Cytostatic activity, relative cell number by YOYO-1 DNA dye; type: cell-based, human
Experimental: (b) Compound A was assessed for cytotoxic and cytostatic activity against a panel of cell lines derived from a variety of human tumour types in addition to THP-1 and A549 cells (Table 5). These included K562 leukemic cells (Lozzio and Lozzio, 1975, Blood 45:321-34), PC3 prostate tumour cells (Kaighn et al., 1979, Invest. Urol. 17:16-23) and SF268 glioblastoma cells (Westphal et al, 1985, Biochem. Biophys. Res. Commun., 132:284-9). […] However, the cytotoxic potency of Compound A increased dramatically after 6 days of culture for the K562, A549 and SF268 cells.

[2] = system: MCF7; experiment: NCI in vitro anticancer drug discovery screen (sulforhodamine B); type: cell-based; conditions: Homo sapiens, MCF7, breast, 48 hr
Experimental: (§1) (c) Testing of Compound A against a much larger cell line panel in the NCI in vitro anticancer screen (Table 7) confirmed the results described above. […] Consistent with the data in Table 5 the cytotoxic effects measured after 2 days of culture were more varied with LC50 values ranging from 10 nM for COLO-205 colon tumour cells to ˜90 μM for 786-0 renal tumour cells.

[3] = system: OVCAR-5; experiment: as above; type: cell-based; conditions: Homo sapiens, OVCAR-5, ovarian, 48 hr
Experimental: as §1

[4] = system: BT-549; experiment: as above; type: cell-based; conditions: Homo sapiens, BT-549, breast, 48 hr
Experimental: as §1

[5] = system: HT29; experiment: as above; type: cell-based; conditions: Homo sapiens, HT-29, HT29, colon, 48 hr
Experimental: as §1

[6] = system: SF-295; experiment: as above; type: cell-based; conditions: Homo sapiens, SF-295, brain, 48 hr
Experimental: as §1

[7] = system: SNB-75; experiment: as above; type: cell-based; conditions: Homo sapiens, SNB-75, brain, 48 hr
Experimental: as §1

[8] = system: RXF 393; experiment: as above; type: cell-based; conditions: Homo sapiens, RXF 393, renal, 48 hr
Experimental: as §1

[9] = system: A498; experiment: as above; type: cell-based; conditions: Homo sapiens, A498, renal, 48 hr
Experimental: as §1

[10] = system: SK-OV-3; experiment: as above; type: cell-based; conditions: Homo sapiens, SK-OV-3, ovarian, 48 hr
Experimental: as §1

[11] = system: OVCAR-8; experiment: as above; type: cell-based; conditions: Homo sapiens, OVCAR-8, ovarian, 48 hr
Experimental: as §1

[12] = system: NCI-H226; experiment: as above; type: cell-based; conditions: Homo sapiens, NCI-H226, lung, 48 hr
Experimental: as §1

[13] = system: SK-MEL-28; experiment: as above; type: cell-based; conditions: Homo sapiens, SK-MEL-28, melanoma, 48 hr
Experimental: as §1

[14] = system: SK-MEL-2; experiment: as above; type: cell-based; conditions: Homo sapiens, SK-MEL-2, melanoma, 48 hr
Experimental: as §1

[15] = system: LOX IMV1; experiment: as above; type: cell-based; conditions: Homo sapiens, LOX IMV1, melanoma, 48 hr
Experimental: as §1

[16] = system: MALME-3M; experiment: as above; type: cell-based; conditions: Homo sapiens, melanoma, 48 hr
Experimental: as §1

[17] = system: 786-0; experiment: as above; type: cell-based; conditions: Homo sapiens; for CC50: 786-0, 48 h, read-out: LC50 (the source's name)
Experimental: as §1

[18] = system: NCI-H460; experiment: as above; type: cell-based; conditions: Homo sapiens, NCI-H460, lung, 48 hr
Experimental: as §1

[19] = system: OVCAR-4; experiment: as above; type: cell-based; conditions: Homo sapiens, OVCAR-4, ovarian, 48 hr
Experimental: as §1

[20] = system: COLO-205; experiment: as above; type: cell-based; conditions: Homo sapiens, COLO-205, colon, 48 hr
Experimental: as §1

[21] = system: IGROVI; experiment: as above; type: cell-based; conditions: Homo sapiens, ovarian, 48 hr
Experimental: as §1

[22] = system: NCI-11522; experiment: as above; type: cell-based; conditions: Homo sapiens, NCI-11522, lung, 48 hr
Experimental: as §1

[23] = system: 8K-MEL-5; experiment: as above; type: cell-based; conditions: Homo sapiens, 8K-MEL-5, melanoma, 48 hr
Experimental: as §1

[24] = system: UACC-62; experiment: as above; type: cell-based; conditions: Homo sapiens, UACC-62, melanoma, 48 hr
Experimental: as §1

[25] = system: SF-539; experiment: as above; type: cell-based; conditions: Homo sapiens, SF-539, brain, 48 hr
Experimental: as §1

[26] = system: MDA-MB-435; experiment: as above; type: cell-based; conditions: Homo sapiens, MDA-MB-435, breast, 48 hr
Experimental: as §1

[27] = system: SF-268; experiment: as above; type: cell-based; conditions: Homo sapiens, SF-268, brain, 48 hr
Experimental: as §1

[28] = system: MDA-MB-231/ATCC; experiment: as above; type: cell-based; conditions: Homo sapiens, breast, 48 hr
Experimental: as §1

[29] = read-out: LC50 (the source's name)

COC(=O)[C@H]1[C@@H](O)[C@@]2(O)c3c(OC)cc(OC4OC(C(O)CO)COC4OC)cc3O[C@@]2(c2ccc(OC)cc2)[C@@H]1c1ccccc1 (single isomer, unassigned) [Compound A]
GI50 ([1]; Homo sapiens, A549, 72 h, read-out: GI50 (3 day cultures), A549, lung): 7 nM | GI50 ([1]; read-out: GI50 (3 day cultures), A549, lung): 13 nM | GI50 [2]: < 10 nM | CC50 [2, 29]: 1000 nM | GI50 [3]: < 10 nM | CC50 [3, 29]: 1000 nM | GI50 [4]: < 10 nM | CC50 [4, 29]: 32700 nM | GI50 [5]: < 10 nM | CC50 [5, 29]: 1000 nM | GI50 [6]: < 10 nM | CC50 [6, 29]: 1230 nM | GI50 [7]: < 10 nM | CC50 [7, 29]: 54 nM | GI50 [8]: < 10 nM | CC50 [8, 29]: 1640 nM | GI50 [9]: < 10 nM | CC50 [9, 29]: 18600 nM | GI50 [10]: < 10 nM | CC50 [10, 29]: 82200 nM | GI50 [11]: < 10 nM | CC50 [11, 29]: 21900 nM | GI50 [12]: < 10 nM | CC50 [12, 29]: 193 nM | GI50 [13]: < 10 nM | CC50 [13, 29]: 2660 nM | GI50 [14]: < 10 nM | CC50 [14, 29]: 19100 nM | GI50 [15]: < 10 nM | CC50 [15, 29]: 1000 nM | GI50 [16]: < 10 nM | CC50 [16, 29]: 24000 nM | CC50 ([17]; 786-0, renal, 48 hr): 91200 nM | CC50 ([17]; 786-0 renal tumour cells, 2 days of culture): ~90000 nM | GI50 ([17]; 786-0, renal, 48 hr): < 10 nM | GI50 [18]: < 10 nM | CC50 [18, 29]: 38000 nM | GI50 [19]: < 10 nM | CC50 [19, 29]: 11 nM | GI50 [20]: < 10 nM | CC50 [20, 29]: 10 nM | GI50 [21]: < 10 nM | CC50 [21, 29]: 2600 nM | GI50 [22]: < 10 nM | CC50 [22, 29]: 2400 nM | GI50 [23]: < 10 nM | CC50 [23, 29]: 67 nM | GI50 [24]: < 10 nM | CC50 [24, 29]: 30 nM | GI50 [25]: < 10 nM | CC50 [25, 29]: 1100 nM | GI50 [26]: < 10 nM | CC50 [26, 29]: 45 nM | GI50 [27]: < 10 nM | CC50 [27, 29]: 1000 nM | GI50 [28]: < 10 nM | CC50 [28, 29]: 25400 nM
